Where two headings read alike, the source gives them in different places.
Tests used:
[1] = tested on: Sprague-Dawley rats; experiment: Serum steroids and gonadotropins; format: in vivo, Rattus norvegicus; details: for CED, Serum FSH / CED, Serum LH / CED-L, Serum FSH / CED-L, Serum LH: adipose tissue concentration based; for Emax: Rattus norvegicus; for Estradiol / LH / Progesterone / FSH / Testosterone: group mean; for Serum FSH, CED / Serum FSH, CED-L / Serum LH, CED / Serum LH, CED-L: total dose based
Protocol: Serum testosterone, estradiol and progesterone concentrations were measured by time-resolved immunofluorometric assay, DELFIA (PerkinElmer Life and Analytical Sciences, Turku, Finland) after diethyl ether (Merck KGaA, Darmstadt, Germany) extraction. Ether-extracted serum samples were reconstituted to DELFIA Diluent II buffer (PerkinElmer Life and Analytical Sciences, Turku, Finland) and used for analysis. The sensitivity of the assay was 100 pg/ml for testosterone, 13.6 pg/ml for estradiol and 250 pg/ml for progesterone. The intra- and interassay coefficients of variation (CV) were below 6 and 12%, respectively. To enhance the sensitivity, commercial tracer and antiserum were additionally diluted 5∶8 with assay buffer (PerkinElmer Life and Analytical Sciences, Turku, Finland) in testosterone assay. For estradiol and progesterone, dilution rate was 1∶2. Serum follicle stimulating hormone (FSH) and luteinizing hormone (LH) levels were determined from unextracted samples by DELFIA as described previously, [31].
Data were also analyzed using the BMD method, which is based on dose-response modeling of the full data set using a nested family of exponential and Hill models. The analyses were done on data of males and females combined, using sex as a covariate. […] In that case, different Critical Effect Doses (CEDs) and CEDs at the lowest bound of the confidence interval (CED-L) were generated for each sex. If no difference between sexes is detected, a CED and CED-Ls for the combined data is generated. However, this was also done if the curve fits are close, and separate analyses for males and females were then performed manually. CEDs and CED-Ls were calculated at the predefined Critical Effect Size (CES) of 5% (EFSA standard) or 10%.

[2] = tested on: Sprague-Dawley rats; experiment: Sperm analyses, cauda epididymis; format: in vivo, Rattus norvegicus; details: males
Protocol: Frozen right cauda epididymides were homogenized for 2 min using Ultra Turrax homogenizer (model T25 basic, IKA-WERKE GmbH, Staufen, Germany) in 20 ml 0.9% saline containing 0.05% Triton X-100 and 0.01% thiomersal. Homogenates were diluted to about 1×10^6 sperms/ml, and counts from 4 hemocytometer chambers were counted and averaged.

[3] = Margin of exposure calculations; design: species or system human; details: for MoE, Liver p53 / MoE, Spontanous locomotor activity: females; for MoE, Liver retinol / MoE, Serum chlolesterol / MoE, Serum thyroxine / MoE, Serum triglycerids: males
Excerpt: They include values from the WHO mother's milk survey in 2001–2002 [1], [2], adipose tissue from the Finnish general population in 1997–1999 [83] and, plasma from the Baltic Sea fisherman cohort in 1997–1999 [41] and placenta from a Danish–Finnish joint prospective cohort in 1997–2001 [40]. WHO has established uncertainty factors (UF) for estimating tolerable intake levels of environmental chemicals. As rat and human tissue concentration data are used no interspecies toxicokinetic UF is needed. A toxicodynamic factor of 2.5 is applied to cover the interspecies variability and a factor of 10 to cover the inter-individual variability in humans. Thus, the UF of 25 is considered adequate for human health endpoints of NDL-PCBs.

[4] = rats; cited from earlier work
[5] = females, total dose 10 mg/kg bw
[6] = females, total dose 30 mg/kg bw
[7] = females, total dose 100 mg/kg bw
[8] = females, total dose 300 mg/kg bw
[9] = females, total dose 1000 mg/kg bw
[10] = females, total dose 1700 mg/kg bw
[11] = males, total dose 1000 mg/kg bw
[12] = males, total dose 1700 mg/kg bw
[13] = Worst case: the most exposed fisherman
[14] = human cohort Baltic Sea fishermen
[15] = human cohort General population (Finland)
[16] = human cohort Placenta (Denmark)
[17] = human cohort Placenta (Finland)

Clc1cc(Cl)c(-c2cc(Cl)c(Cl)c(Cl)c2Cl)cc1Cl [PCB 180, 2,2′,3′,4,4′,5,5′-heptachlorobiphenyl]
CED, Serum FSH ([1]; M, CES 5%, model E2): 1600 µg/g lipid
CED, Serum LH ([1]; M, CES 5%, model E2): 1160 µg/g lipid
CED-L, Serum FSH ([1]; M, CES 5%, model E2): 1116 µg/g lipid
CED-L, Serum LH ([1]; M, CES 5%, model E2): 648 µg/g lipid
CED, Serum FSH ([1]; M, CES 10%, model E2): 3290 µg/g lipid
CED, Serum LH ([1]; M, CES 10%, model E2): 2390 µg/g lipid
CED-L, Serum FSH ([1]; M, CES 10%, model E2): 2292 µg/g lipid
CED-L, Serum LH ([1]; M, CES 10%, model E2): 1331 µg/g lipid
Emax ([1]; males, controls vs high dose, fitted model, read-out: Serum FSH, Maximum response): -20.6%
Emax ([1]; males, controls vs high dose, fitted model, read-out: Serum LH, Maximum response): -27.9%
Emax ([1]; M, model E2, controls vs high dose according to the fitted model, read-out: Maximum response, Serum FSH): -21.1%
Emax ([1]; M, model E2, controls vs high dose according to the fitted model, read-out: Maximum response, Serum LH): -27.8%
Estradiol ([1]; females, total dose 3 mg/kg bw): 20.2 pg/mL
LH ([1]; females, total dose 3 mg/kg bw): 1.51 ng/mL
Progesterone ([1]; females, total dose 3 mg/kg bw): 37.1 ng/mL
Estradiol [1, 5]: 23.6 pg/mL
LH [1, 5]: 2.57 ng/mL
Progesterone [1, 5]: 18.0 ng/mL
Estradiol [1, 6]: 18.8 pg/mL
LH [1, 6]: 1.81 ng/mL
Progesterone [1, 6]: 22.3 ng/mL
Estradiol [1, 7]: 21.4 pg/mL
LH [1, 7]: 1.96 ng/mL
Progesterone [1, 7]: 33.0 ng/mL
Estradiol [1, 8]: 15.4 pg/mL
LH [1, 8]: 2.02 ng/mL
Progesterone [1, 8]: 27.5 ng/mL
Estradiol [1, 9]: 17.4 pg/mL
LH [1, 9]: 1.39 ng/mL
Progesterone [1, 9]: 27.7 ng/mL
Estradiol [1, 10]: 17.6 pg/mL
LH [1, 10]: 1.77 ng/mL
Progesterone [1, 10]: 22.7 ng/mL
FSH, Dose response ([1]; males): D, T
LH, Dose response ([1]; males): D, T
Serum FSH, CED ([1]; males, CES 5%): 377 mg/kg bw
Serum FSH, CED-L ([1]; males, CES 5%): 263 mg/kg bw
Serum LH, CED ([1]; males, CES 5%): 266 mg/kg bw
Serum LH, CED-L ([1]; males, CES 5%): 150 mg/kg bw
Serum FSH, CED ([1]; males, CES 10%): 775 mg/kg bw
Serum FSH, CED-L ([1]; males, CES 10%): 540 mg/kg bw
Serum LH, CED ([1]; males, CES 10%): 547 mg/kg bw
Serum LH, CED-L ([1]; males, CES 10%): 309 mg/kg bw
FSH ([1]; males, total dose 3 mg/kg bw): 8.23 ng/mL
LH ([1]; males, total dose 3 mg/kg bw): 1.23 ng/mL
Testosterone ([1]; males, total dose 3 mg/kg bw): 2.35 ng/mL
FSH ([1]; males, total dose 10 mg/kg bw): 8.54 ng/mL
LH ([1]; males, total dose 10 mg/kg bw): 0.91 ng/mL
Testosterone ([1]; males, total dose 10 mg/kg bw): 2.66 ng/mL
FSH ([1]; males, total dose 30 mg/kg bw): 7.44 ng/mL
LH ([1]; males, total dose 30 mg/kg bw): 0.99 ng/mL
Testosterone ([1]; males, total dose 30 mg/kg bw): 1.92 ng/mL
FSH ([1]; males, total dose 100 mg/kg bw): 7.88 ng/mL
LH ([1]; males, total dose 100 mg/kg bw): 0.84 ng/mL
Testosterone ([1]; males, total dose 100 mg/kg bw): 3.21 ng/mL
FSH ([1]; males, total dose 300 mg/kg bw): 7.66 ng/mL
LH ([1]; males, total dose 300 mg/kg bw): 1.03 ng/mL
Testosterone ([1]; males, total dose 300 mg/kg bw): 2.04 ng/mL
FSH [1, 11]: 7.49 ng/mL
LH [1, 11]: 0.77 ng/mL
Testosterone [1, 11]: 2.18 ng/mL
FSH [1, 12]: 6.49 ng/mL
LH [1, 12]: 0.75 ng/mL
Testosterone [1, 12]: 1.85 ng/mL
Cauda epididymal sperm density ([2]; 1700 mg/kg bw vs control): not affected
Sperm density ([2]; total dose 1700 mg/kg bw, cauda epididymis, group mean): 691 106/g tissue
Sperm count ([2]; total dose 1700 mg/kg bw, group mean): 94.0 106/cauda epididymis
MoE, Liver p53 [3, 13]: 25
MoE, Spontanous locomotor activity [3, 13]: 0.438
MoE, Liver p53 [3, 14]: 65.2
MoE, Spontanous locomotor activity [3, 14]: 1.14
MoE, Liver p53 [3, 15]: 316
MoE, Spontanous locomotor activity [3, 15]: 5.53
MoE, Liver p53 ([3]; human cohort Mother's milk): 655
MoE, Spontanous locomotor activity ([3]; human cohort Mother's milk): 11.5
MoE, Liver p53 [3, 16]: 3109
MoE, Spontanous locomotor activity [3, 16]: 54.4
MoE, Liver p53 [3, 17]: 5396
MoE, Spontanous locomotor activity [3, 17]: 94.4
MoE, Liver retinol [3, 13]: 15.7
MoE, Serum chlolesterol [3, 13]: 76.2
MoE, Serum thyroxine [3, 13]: 97.5
MoE, Serum triglycerids [3, 13]: 6.05
MoE, Liver retinol [3, 14]: 40.9
MoE, Serum chlolesterol [3, 14]: 199
MoE, Serum thyroxine [3, 14]: 254
MoE, Serum triglycerids [3, 14]: 15.8
MoE, Liver retinol [3, 15]: 198
MoE, Serum chlolesterol [3, 15]: 963
MoE, Serum thyroxine [3, 15]: 1233
MoE, Serum triglycerids [3, 15]: 76.5
MoE, Liver retinol ([3]; human cohort Mother's milk): 410
MoE, Serum chlolesterol ([3]; human cohort Mother's milk): 1996
MoE, Serum thyroxine ([3]; human cohort Mother's milk): 2555
MoE, Serum triglycerids ([3]; human cohort Mother's milk): 159
MoE, Liver retinol [3, 16]: 1948
MoE, Serum chlolesterol [3, 16]: 9472
MoE, Serum thyroxine [3, 16]: 12124
MoE, Serum triglycerids [3, 16]: 752
MoE, Liver retinol [3, 17]: 3381
MoE, Serum chlolesterol [3, 17]: 16439
MoE, Serum thyroxine [3, 17]: 21043
MoE, Serum triglycerids [3, 17]: 1306
Elimination half-life [4]: 90 days

Source: PMC4138103 (PLoS ONE, 2014)
